Test system: normal human lung fibroblasts
Experiment: Ribosomal profiling: translational efficiency in TGFβ-treated fibroblasts
Type: cell-based
Details: TGFβ-treated fibroblasts
Protocol: Ribosomal profiling allows for measurement of changes in transcription and translation on a genome-wide basis accompanying TGFβ-dependent transformation of fibroblasts to myofibroblasts. Ribosomal profiles of the TGFβ-treated fibroblasts from Example 1 (about 6×10^6 cells/10 cm plate) were prepared and analyzed for changes in translational efficiencies with respect to potential disease-associated cellular changes accompanying this TGFβ-induced transformation.
Briefly, cells were washed with cold PBS supplemented with cycloheximide and lysed with 1× mammalian cell lysis buffer for 10 minutes on ice. Lysates were clarified by centrifugation for 10 minutes at 14,000 rpm and supernatants were collected. Cell lysates were processed to generate ribosomal protected fragments and total mRNA according to the instructions included with the ARTseq Ribosome Profiling Kit (Illumina, San Diego, Calif.). Sequencing of total RNA (RNA) and of ribosome-protected fragments of RNA (RPF) was carried out using RNA-Seq methodology according to the manufacturer's instructions (Illumina). To analyze the ribosomal profiles, RNA-Seq reads were processed with tools from the FASTX-Toolkit (fastq_quality_trimmer, fastx_clipper and fastx_trimmer). Unprocessed and processed reads were evaluated for a variety of quality measures using FastQC, and processed reads were mapped to the human genome using TopHat (see, e.g., Trapnell et al., Bioinformatics 25:1105, 2009). Gene-by-gene assessment of the number of fragments strictly and uniquely mapping to the coding region of each gene was conducted using HTSeq-count, a component of the HTSeq package. […] Genes with low counts in either RPF or RNA were excluded from differential analyses. Pathway and network analyses of differential data were conducted using Ingenuity Pathway Analysis (IPA).

## CC(C)n1nc(-c2cc3cc(O)ccc3[nH]2)c2c(N)ncnc21 [PP242]
ENSG00000013563
  renormalizing the translational profile of DNASE1L1: − (− = <0.9)
ENSG00000049192
  renormalizing the translational profile of ADAMTS6: − (− = <0.9)
ENSG00000050426
  renormalizing the translational profile of LETMD1: − (− = <0.9)
ENSG00000052126
  renormalizing the translational profile of PLEKHA5: − (− = <0.9)
ENSG00000063046
  renormalizing the translational profile of EIF4B: + (+ = 0.9 to 1.5)
ENSG00000063177
  renormalizing the translational profile of RPL18: + (+ = 0.9 to 1.5)
ENSG00000064393
  renormalizing the translational profile of HIPK2: − (− = <0.9)
ENSG00000066279
  renormalizing the translational profile of ASPM: + (+ = 0.9 to 1.5)
ENSG00000068028
  renormalizing the translational profile of RASSF1: − (− = <0.9)
ENSG00000070756
  renormalizing the translational profile of PABPC1: − (− = <0.9)
ENSG00000071082
  renormalizing the translational profile of RPL31: + (+ = 0.9 to 1.5)
ENSG00000075651
  renormalizing the translational profile of PLD1: − (− = <0.9)
ENSG00000078401
  renormalizing the translational profile of EDN1: − (− = <0.9)
ENSG00000087586
  renormalizing the translational profile of AURKA: − (− = <0.9)
ENSG00000088367
  renormalizing the translational profile of EPB41L1: − (− = <0.9)
ENSG00000089009
  renormalizing the translational profile of RPL6: − (− = <0.9)
ENSG00000089041
  renormalizing the translational profile of P2RX7: + (+ = 0.9 to 1.5)
ENSG00000089157
  renormalizing the translational profile of RPLP0: − (− = <0.9)
ENSG00000089289
  renormalizing the translational profile of IGBP1: − (− = <0.9)
ENSG00000090376
  renormalizing the translational profile of IRAK3: − (− = <0.9)
ENSG00000090621
  renormalizing the translational profile of PABPC4: − (− = <0.9)
ENSG00000094963
  renormalizing the translational profile of FMO2: +++ (+++ = >2.0)
ENSG00000097021
  renormalizing the translational profile of ACOT7: − (− = <0.9)
ENSG00000099624
  renormalizing the translational profile of ATP5D: − (− = <0.9)
ENSG00000100097
  renormalizing the translational profile of LGALS1: − (− = <0.9)
ENSG00000100129
  renormalizing the translational profile of EIF3L: − (− = <0.9)
ENSG00000100316
  renormalizing the translational profile of RPL3: − (− = <0.9)
ENSG00000101639
  renormalizing the translational profile of CEP192: − (− = <0.9)
ENSG00000101935
  renormalizing the translational profile of AMMECR1: − (− = <0.9)
ENSG00000102007
  renormalizing the translational profile of PLP2: − (− = <0.9)
ENSG00000104408
  renormalizing the translational profile of EIF3E: + (+ = 0.9 to 1.5)
ENSG00000104529
  renormalizing the translational profile of EEF1D: − (− = <0.9)
ENSG00000104979
  renormalizing the translational profile of C19orf53: − (− = <0.9)
ENSG00000105373
  renormalizing the translational profile of GLTSCR2: + (+ = 0.9 to 1.5)
ENSG00000105514
  renormalizing the translational profile of RAB3D: + (+ = 0.9 to 1.5)
ENSG00000105640
  renormalizing the translational profile of RPL18A: + (+ = 0.9 to 1.5)
ENSG00000105664
  renormalizing the translational profile of COMP: − (− = <0.9)
ENSG00000106415
  renormalizing the translational profile of GLCCI1: + (+ = 0.9 to 1.5)
ENSG00000106789
  renormalizing the translational profile of CORO2A: − (− = <0.9)
ENSG00000107623
  renormalizing the translational profile of GDF10: − (− = <0.9)
ENSG00000108107
  renormalizing the translational profile of RPL28: − (− = <0.9)
ENSG00000108298
  renormalizing the translational profile of RPL19: − (− = <0.9)
ENSG00000108551
  renormalizing the translational profile of RASD1: − (− = <0.9)
ENSG00000109065
  renormalizing the translational profile of NAT9: − (− = <0.9)
ENSG00000109475
  renormalizing the translational profile of RPL34: − (− = <0.9)
ENSG00000109846
  renormalizing the translational profile of CRYAB: − (− = <0.9)
ENSG00000111640
  renormalizing the translational profile of GAPDH: + (+ = 0.9 to 1.5)
ENSG00000111678
  renormalizing the translational profile of C12orf57: − (− = <0.9)
ENSG00000112559
  renormalizing the translational profile of MDFI: − (− = <0.9)
ENSG00000113070
  renormalizing the translational profile of HBEGF: − (− = <0.9)
ENSG00000114391
  renormalizing the translational profile of RPL24: − (− = <0.9)
ENSG00000114942
  renormalizing the translational profile of EEF1B2: − (− = <0.9)
ENSG00000115267
  renormalizing the translational profile of IFIH1: + (+ = 0.9 to 1.5)
ENSG00000117543
  renormalizing the translational profile of DPH5: − (− = <0.9)
ENSG00000118898
  renormalizing the translational profile of PPL: − (− = <0.9)
ENSG00000120278
  renormalizing the translational profile of PLEKHG1: − (− = <0.9)
ENSG00000121897
  renormalizing the translational profile of LIAS: − (− = <0.9)
ENSG00000121957
  renormalizing the translational profile of GPSM2: − (− = <0.9)
ENSG00000122026
  renormalizing the translational profile of RPL21: − (− = <0.9)
ENSG00000122406
  renormalizing the translational profile of RPL5: + (+ = 0.9 to 1.5)
ENSG00000122641
  renormalizing the translational profile of INHBA: − (− = <0.9)
ENSG00000122966
  renormalizing the translational profile of CIT: − (− = <0.9)
ENSG00000125691
  renormalizing the translational profile of RPL23: − (− = <0.9)
ENSG00000125869
  renormalizing the translational profile of LAMP5: − (− = <0.9)
ENSG00000125967
  renormalizing the translational profile of NECAB3: − (− = <0.9)

From patent US9993494B2, “Compositions and methods for treating fibrotic disease” (eFFECTOR Therapeutics, Inc., priority 2014, dated 2018)
